Test results published in patent publication US20080261895A1 (Wyeth, priority 2006, published 2008).
Values belong to the compound of their own block, whether it stands above or below them.

Columns and labels:
[1] = test system: s Cholinergic; conditions: cited from earlier work
[2] = test system: Adrenergic a; conditions: cited from earlier work
[3] = test system: Opiate; conditions: cited from earlier work
[4] = Metabolites of DVS observed by LC/MS in rat plasma, urine and feces; assay type: in vivo, Sprague Dawley rats; conditions: P: plasma, U: urine, F: feces
Method: (§1) An Agilent Model 1100 HPLC system (Agilent Technologies, Wilmington, Del.) including an autosampler and diode array UV detector was used for LC/MS analysis. The UV detector was set to monitor 200 to 400 nm. Separations were accomplished on a 5 micron Phenomenex Luna C18(2) column, 150×2 mm (Phenomenex). The column temperature was 25° C. The mobile phases and gradient program were as follows.
The mass spectrometer used for metabolite characterization was a Micromass Q-TOF-2 quadrupole time-of-flight hybrid mass spectrometer (Micromass, Inc., Beverly, Mass.). The mass spectrometer was equipped with an electrospray ionization (ESI) interface and operated in the positive ionization mode.

[5] = molecular target: D2 (Homo sapiens, UniProt P14416); conditions: cited from earlier work
Chain of D2 (P14416 whole entry): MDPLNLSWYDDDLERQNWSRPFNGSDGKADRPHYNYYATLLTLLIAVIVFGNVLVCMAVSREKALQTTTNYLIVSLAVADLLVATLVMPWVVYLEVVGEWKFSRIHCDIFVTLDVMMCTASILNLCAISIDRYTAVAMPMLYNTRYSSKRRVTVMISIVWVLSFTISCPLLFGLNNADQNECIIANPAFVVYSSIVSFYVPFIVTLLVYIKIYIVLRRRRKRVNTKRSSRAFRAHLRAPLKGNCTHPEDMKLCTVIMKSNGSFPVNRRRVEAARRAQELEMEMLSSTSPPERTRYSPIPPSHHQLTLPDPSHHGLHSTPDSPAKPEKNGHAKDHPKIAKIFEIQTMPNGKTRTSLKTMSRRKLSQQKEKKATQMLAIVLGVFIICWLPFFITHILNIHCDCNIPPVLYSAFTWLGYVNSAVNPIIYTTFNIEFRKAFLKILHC

[6] = Metabolites of DVS observed by LC/MS in dog plasma, urine and feces; assay type: in vivo, beagle dogs; conditions: P: plasma, U: urine, F: feces
Method: as §1, with “For selected LC/MS analyses, radiochromatograms” for “The mobile phases and gradient program”, “acquired using a β-RAM model 3 radioactivity flow detector (IN/US Systems Inc., Tampa, Fla.) equipped with a solid scintillation flow cell.” for “as follows.”
The mass spectrometers used for metabolite characterization were a Micromass Q-TOF-2 quadrupole time-of-flight hybrid mass spectrometer (Micromass, Inc., Beverly, Mass.) and a Finnigan LCQ Deca ion trap mass spectrometer (ThermoFinnigan, San Jose, Calif.). The mass spectrometer was equipped with an electrospray ionization (ESI) interface and operated in the positive ionization mode.

[7] = molecular target: Histamine Hi (Homo sapiens, UniProt P35367); conditions: cited from earlier work
Chain of Histamine Hi (P35367 whole entry): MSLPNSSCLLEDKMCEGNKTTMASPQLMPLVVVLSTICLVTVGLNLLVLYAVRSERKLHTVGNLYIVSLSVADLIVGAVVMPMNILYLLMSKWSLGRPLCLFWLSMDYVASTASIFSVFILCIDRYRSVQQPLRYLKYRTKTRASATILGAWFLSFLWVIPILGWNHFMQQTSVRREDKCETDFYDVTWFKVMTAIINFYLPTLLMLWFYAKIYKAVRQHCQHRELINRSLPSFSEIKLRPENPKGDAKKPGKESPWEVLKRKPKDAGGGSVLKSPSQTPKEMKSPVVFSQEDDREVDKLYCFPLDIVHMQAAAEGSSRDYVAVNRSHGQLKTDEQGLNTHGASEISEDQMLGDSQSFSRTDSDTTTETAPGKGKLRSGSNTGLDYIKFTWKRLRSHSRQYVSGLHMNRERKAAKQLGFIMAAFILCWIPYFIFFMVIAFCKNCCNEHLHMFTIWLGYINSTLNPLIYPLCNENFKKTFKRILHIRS

[8] = test system: Reserpine-Induce Hypothermia; conditions: cited from earlier work
[9] = test system: dog liver microsomes; assay: Glucuronidation in dog liver microsomes; assay type: in vitro ADME; conditions: dog liver microsomes 1 mg/mL, 100 μM, 30 minutes
Method: To confirm the site of glucuronidation of DVS, incubations were performed using dog liver microsomes. These incubations compared the glucuronidation of DVS to venlafaxine. […] Reactions were initiated by the addition of UDPGA (final concentration 1 mM). An additional set of incubations was performed for venlafaxine with UDPGA and an NADPH generating system. […] Reactions were stopped by the addition of 500 μL of acetonitrile and processed as described above. Samples were analyzed by LC/MS.

[10] = test system: monoamine oxidase; conditions: cited from earlier work
[11] = test system: histaminergic receptors; conditions: in vitro; cited from earlier work
[12] = test system: adrenergic receptors; conditions: in vitro; cited from earlier work

Matrix (metabolite observed by LC/MS) [4]: P, U, F
Matrix (metabolite observed by LC/MS) [6]: P, U, F
Structure (SMILES): CN(C)CC(c1ccc(O)cc1)C1(O)CCCCC1 (stereo not shown) [O-DESMETHYLVENLAFAXINE, 1-[2-(dimethylamino)-1-(4-phenol)ethyl]-cyclohexanol]
Affinity for Various Neuroreceptors (% inhibition at 1 uM): s Cholinergic [1]: 7%
Affinity for Various Neuroreceptors (% inhibition at 1 uM): Adrenergic a [2]: 0%
Affinity for Various Neuroreceptors (% inhibition at 1 uM): Opiate [3]: 7%
Affinity for Various Neuroreceptors (% inhibition at 1 uM): D2 [5]: 6%
Affinity for Various Neuroreceptors (% inhibition at 1 uM): Histamine Hi [7]: 0%
Reversal of Reserpine-Induce Hypothermia (minimum effect; mg&g i.p.) [8]: 3 mg&g

Structure (SMILES): COc1ccc(C(CN(C)C)C2(O)CCCCC2)cc1 (stereo not shown) [venlafaxine, 1-[2-(dimethylamino)-1-(4-methoxyphenyl)ethyl]cyclohexanol]
glucuronidation ([9]; in the presence of both UDPGA and NADPH): observed
glucuronidation ([9]; in the presence of only UDPGA): not
inhibitory activity on monoamine oxidase [10]: no inhibitory activity
affinity for histaminergic receptors [11]: virtually no affinity
affinity for adrenergic receptors [12]: virtually no affinity
